For orientation: LD50 means the dose expected to kill half of the subjects tested.

The series is described as follows: rat acute oral toxicity. The settings on record: in vivo.
Turning to `CCN(CC)C(=S)SSC(=S)N(CC)CC`, the LD50 stood at 500 mg/kg.

Turning to `CNC(=O)CSP(=O)(OC)OC`, the LD50 was 25 mg/kg. `OCC(F)(F)F` registered an LD50 of 153 mg/kg. Next, `CC=O`: 661 mg/kg; `C=CC1CC2C=CC1C2` (centres undefined): 5240 mg/kg; `CC1(C)C(=O)N(Br)C(=O)N1Br`: 250 mg/kg. Under `CCNC(=O)CSP(=S)(OC)OC` stands 125 mg/kg; under `Clc1cc2c(c(Cl)c1Cl)Oc1cc(Cl)c(Cl)c(Cl)c1O2`, 0.8 mg/kg; under `CCCCCCCCCC[N+](C)(C)CCCCCCCCCC`, 84 mg/kg. Next, `CS(C)=O`: 14500 mg/kg; `O=C(O)C(F)(OC(F)(F)C(F)(F)C(F)(F)F)C(F)(F)F` (centres undefined): 1750 mg/kg.

As for `Cc1cc(Cl)ccc1OCCCC(=O)O`, the 50% lethal dose (LD50) amounted to 680 mg/kg. Next, `CC(O)CNCC(C)O` (centres undefined): 4760 mg/kg; `CCCCC(CC)(CO)CO`: 2800 mg/kg. As for `Clc1cc2c(cc1Cl)Oc1cc(Cl)c(Cl)cc1O2`, the LD50 turned out to be 0.02 mg/kg. For `NC(N)=S`, the LD50 came to 20 mg/kg.

The molecule `Cc1cc(Cl)ccc1OCC(=O)O` showed an LD50 of 700 mg/kg. In the case of `CCN(CC)c1nc(C)cc(OP(=S)(OC)OC)n1`, the 50% lethal dose (LD50) is 1250 mg/kg.

With `Cc1ccccc1OCC1CO1` (centres undefined), the LD50 turned out to be 2800 mg/kg. For `C/C(=N\NC(=O)Nc1cc(F)cc(F)c1)c1ncccc1C(=O)O`, the LD50 turned out to be 3300 mg/kg.

As for `CCCOC(C)=O`, the LD50 was determined as 9370 mg/kg. Compared with the last molecule, the LD50 is about 2.8-fold higher.

The molecule `CCN(CC)c1nc(Nc2ccc(/C=C/c3ccc(Nc4nc(Nc5cc(S(=O)(=O)O)ccc5S(=O)(=O)O)nc(N(CC)CC)n4)cc3S(=O)(=O)O)c(S(=O)(=O)O)c2)nc(Nc2cc(S(=O)(=O)O)ccc2S(=O)(=O)O)n1` had an LD50 of 11300 mg/kg. On to `Cc1ccc(C)c(C)c1`, for which the LD50 was 3280 mg/kg. Consider `O=[N+]([O-])c1ccc(Cl)cc1O`, for which the LD50 worked out at 1000 mg/kg. Next, `CCCCOP(=O)(OCCCC)Oc1ccccc1`: 2140 mg/kg; `COC(=O)c1ccccc1O`: 887 mg/kg. Next, `Clc1cc(Cl)c(Cl)nc1Cl`: 1000 mg/kg; `O=C(O)COc1nc(Cl)c(Cl)cc1Cl`: 630 mg/kg; `O=[N+]([O-])C(Br)(CO)CO`: 180 mg/kg. Next, `CN(C)c1ccccc1`: 951 mg/kg; `Nc1ccc(Nc2ccccc2)cc1`: 464 mg/kg; `CN(CCCCCC(=O)O)S(=O)(=O)c1ccccc1` (racemic): 3040 mg/kg. Regarding `COCC(C)O` (centres undefined), the LD50 was found to be 3740 mg/kg. `COC(=O)N(C(=O)N1CO[C@@]2(C(=O)OC)Cc3cc(Cl)ccc3C2=N1)c1ccc(OC(F)(F)F)cc1` registered a 50% lethal dose (LD50) of 268 mg/kg. Next, `CCON=C(CC)C1=C(O)CC(c2c(C)cc(C)cc2C)CC1=O` (centres undefined): 934 mg/kg; `CC(=O)c1cc2c(cc1C)C(C)(C)C(C)CC2(C)C` (centres undefined): 920 mg/kg; `BrC(Br)Br`: 933 mg/kg. `CNC(=S)NN` returned an LD50 of 14 mg/kg. This LD50 is about 67-fold lower than that of the molecule before.

Molecule `CC(C)CCCCCOC(=O)c1ccccc1C(=O)OCCCCCC(C)C` displayed an LD50 of 22000 mg/kg. The molecule `CN(C)C(=O)Nc1ccc(Cl)c(Cl)c1` returned an LD50 of 437 mg/kg. `C=COCCCC` showed an LD50 of 10000 mg/kg.

With `O=C(O)c1ccccc1C(=O)Nc1cccc2ccccc12`, the 50% lethal dose (LD50) turned out to be 1770 mg/kg. Consider `CCC1(c2ccccc2)C(=O)NC(=O)NC1=O`, for which the LD50 stood at 162 mg/kg. This LD50 lies about 11-fold lower than the previous one. Under `C=CC(=O)OCC` stands 800 mg/kg. As to `CCCC(O)C(CC)CO` (centres undefined), the LD50 was 1400 mg/kg. Molecule `COP(=O)(NC(C)=O)SC` (centres undefined) displayed a median lethal dose (LD50) of 700 mg/kg. Next, `CC(C)C1OCC=CCO1`: 1000 mg/kg. Next, `Cc1ccc2nc3sc(=O)sc3nc2c1`: 1100 mg/kg; `CCC(C)n1c(=O)[nH]c(C)c(Br)c1=O` (centres undefined): 641 mg/kg.

`CC(O)COc1ccccc1` (centres undefined) had an LD50 of 2830 mg/kg. `CC(C)CC(C)O` (centres undefined) displayed a median lethal dose (LD50) of 2590 mg/kg. Molecule `C=CC#N` had an LD50 of 78 mg/kg.

In the case of `CNC(=S)S`, the 50% lethal dose (LD50) turned out to be 615 mg/kg. Under `CC1(C)[C@H](C(=O)O[C@H](C#N)c2cccc(Oc3ccccc3)c2)[C@@H]1C(Br)C(Br)(Br)Br` (some centres undefined) stands 99 mg/kg; under `O=c1n(CC2CO2)c(=O)n(CC2CO2)c(=O)n1CC1CO1` (centres undefined), 222 mg/kg.

Take `CC(=O)CC(=O)Nc1ccccc1C`: the LD50 came out at 1020 mg/kg. Next, `CN(C)C(=O)C(c1ccccc1)c1ccccc1`: 685 mg/kg; `C[N+](C)(C)CCO`: 3400 mg/kg; `C1=CC2C3C=CC(C3)C2C1` (centres undefined): 366 mg/kg. Next, `CC1CCCCN1CCCOC(=O)c1ccc(Cl)c(Cl)c1` (centres undefined): 800 mg/kg; `Cc1nnc(-c2ccccc2)c(=O)n1N`: 1180 mg/kg. Under `CCOC(=O)C1(c2ccccc2)CCN(C)CC1` stands 162 mg/kg; under `Clc1cccc(Cl)c1N=C1NCCN1`, 67.3 mg/kg. With `O=C=NC1CCCCC1`, the LD50 amounted to 335 mg/kg.

`O=C(O)c1ccccc1-c1c2cc(I)c(=O)c(I)c-2oc2c(I)c(O)c(I)cc12` yielded an LD50 of 1840 mg/kg. Next, `CCCCCCCCCCCCN(C)C`: 740 mg/kg.

Consider `O=C(CC(C(=O)OC1CCCCC1)S(=O)(=O)O)OC1CCCCC1` (centres undefined), for which the LD50 is 2830 mg/kg.

Molecule `CC(O)COC(C)CO` (centres undefined) returned an LD50 of 2280 mg/kg. `NNc1nncc2ccccc12` returned a 50% lethal dose (LD50) of 173 mg/kg. Compared with the last molecule, the LD50 is about 13-fold lower. In turn, `CCCC1CO1` (centres undefined) showed an LD50 of 1330 mg/kg. `CCCC(C)=O` had an LD50 of 1600 mg/kg.

Molecule `CNC(=O)Oc1ccccc1OC(C)C` showed an LD50 of 41 mg/kg.

As to `CC(C)CCCCCCO`, the LD50 came to 2980 mg/kg. Next, `CC(=O)Oc1ccc(C(c2ccc(OC(C)=O)cc2)c2ccccn2)cc1`: 4300 mg/kg; `C1CCC2CCCCC2C1` (centres undefined): 4170 mg/kg. Next, `CC(C)c1ccc2ccc(C(C)C)cc2c1`: 4130 mg/kg; `Cc1ccc(O)c(C)c1`: 2300 mg/kg. Next, `Cc1ccccc1Cc1ccccc1`: 3020 mg/kg. As for `Cc1cccc(C)c1N`, the 50% lethal dose (LD50) came to 840 mg/kg. Next, `CCCCNC(=O)OCC#CI`: 1100 mg/kg. In the case of `O=C(O)c1cccnc1`, the LD50 was found to be 4500 mg/kg. Next, `COc1ccc(OC)c([N+](=O)[O-])c1`: 2120 mg/kg; `O=c1sc2ccccc2c(O)c1C1CC(c2ccc(-c3ccc(Br)cc3)cc2)Cc2ccccc21` (centres undefined): 0.55 mg/kg; `COc1nc(C)nc(NC(=O)NS(=O)(=O)c2ccccc2Cl)n1`: 5540 mg/kg.

`CCOP(=S)(OCC)Oc1ccc(Cl)cc1Cl`: the LD50 was 172 mg/kg. Next, `CCCCC(CC)C(=O)O` (centres undefined): 2040 mg/kg. Next, `COP(=S)(Oc1cc(Cl)c(Br)cc1Cl)c1ccccc1` (centres undefined): 19 mg/kg. Consider `ClC(Cl)=C(Cl)Cl`, for which the LD50 worked out at 2630 mg/kg. Take `CC(C#N)CCC#N` (centres undefined): the LD50 amounted to 170 mg/kg. Compared with the last molecule, the LD50 is about 15-fold lower.

In turn, `CCOC=O` had an LD50 of 1850 mg/kg.

Molecule `CCCCCC` yielded an LD50 of 25000 mg/kg. Against the preceding molecule, the LD50 is about 14-fold higher.

With `CCCCCCCO`, the LD50 was 500 mg/kg. For the molecule `c1ccncc1`, the LD50 stood at 891 mg/kg.

The molecule `CC(C)CCCCCCCCCCOP(OCCCCCCCCCCC(C)C)OCCCCCCCCCCC(C)C` returned an LD50 of 12000 mg/kg. On to `CC1(C)[C@H]2[C@H](O)OC(=O)[C@H]21`, for which the median lethal dose (LD50) worked out at 200 mg/kg. Under `CCCCCCCCCCCC[N+](C)(C)[O-]` stands 1060 mg/kg; under `O=C1O[B-]2(OC1=O)OC(=O)C(=O)O2`, 175 mg/kg; under `O=C(OCC1CCC2OC2C1)C1CCC2OC2C1` (centres undefined), 4490 mg/kg. Next, `CN`: 80 mg/kg; `OCCOCCO`: 12600 mg/kg. Next, `CCN(CC)C(=O)c1cccc(C)c1`: 1950 mg/kg; `COP(=S)(OC)SCN1C(=O)c2ccccc2C1=O`: 26 mg/kg; `Oc1cccc(O)c1`: 301 mg/kg. The molecule `CC/C=C\C#N` yielded an LD50 of 198 mg/kg. Next, `N#Cc1nn(-c2c(Cl)cc(C(F)(F)F)cc2Cl)c(N)c1S(=O)C(F)(F)F` (centres undefined): 92 mg/kg; `CCC(C)NC1CCC(CC2CCC(NC(C)CC)CC2)CC1` (centres undefined): 266 mg/kg; `O=C(O)C1C2CCC(O2)C1C(=O)O` (centres undefined): 38 mg/kg.

In the case of `O=C1NS(=O)(=O)c2ccccc21`, the LD50 came out at 8820 mg/kg.

Turning to `CCCCOC(=O)C(C)Oc1ccc(Oc2ccc(C(F)(F)F)cn2)cc1` (centres undefined), the LD50 is 2910 mg/kg. The molecule `CCCCCCC=O` returned an LD50 of 3200 mg/kg. Next, `COc1ccccc1[N+](=O)[O-]`: 740 mg/kg; `O=C(CCCN1CCC(O)(c2ccc(Cl)cc2)CC1)c1ccc(F)cc1`: 128 mg/kg.

Molecule `CCCCCCCC(=O)OC` had an LD50 of 10100 mg/kg. Under `COC[C@H](C)N(C(=O)CCl)c1c(C)csc1C` stands 371 mg/kg. `Oc1ccccc1O` gave an LD50 of 260 mg/kg. This LD50 and that of the molecule before are within 1.5-fold of each other. For `CCCCNCCCC`, the LD50 is 189 mg/kg. Under `CC(C)COC(=O)c1ccccc1C(=O)OCC(C)C` stands 10400 mg/kg.

For the molecule `NNC(N)=S`, the LD50 was 9.16 mg/kg.

The molecule `CC1(C)OC(c2ccco2)CN1C(=O)C(Cl)Cl` (centres undefined) registered an LD50 of 521 mg/kg. This LD50 is about 57-fold higher than that of the molecule before. The molecule `C1CCSC1` returned an LD50 of 1750 mg/kg.

`CCN(CC)c1c([N+](=O)[O-])cc(C(F)(F)F)c(N)c1[N+](=O)[O-]`: the LD50 amounted to 3000 mg/kg.

`O=C1C2(Cl)C3(Cl)C4(Cl)C(Cl)(Cl)C5(Cl)C3(Cl)C1(Cl)C5(Cl)C24Cl` (centres undefined) yielded an LD50 of 91.3 mg/kg. This LD50 is about 33-fold lower than that of the molecule before. The molecule `CCC(C)=NO[Si](ON=C(C)CC)(ON=C(C)CC)ON=C(C)CC` gave an LD50 of 2450 mg/kg. Under `CCN(CC)CCNC(=O)c1ccc(N)cc1` stands 1510 mg/kg. Under `ClC1=C(Cl)C2(Cl)C3C(Cl)OC(Cl)C3C1(Cl)C2(Cl)Cl` (centres undefined) stands 4.8 mg/kg; under `CCNP(=S)(OC)O/C(C)=C/C(=O)OC(C)C` (centres undefined), 59.5 mg/kg; under `O=[N+]([O-])c1cccc(O)c1`, 328 mg/kg.

On to `C=COC(C)=O`, for which the LD50 was determined as 2900 mg/kg.

As for `CCCCOCCOCCOCc1cc2c(cc1CCC)OCO2`, the LD50 turned out to be 4570 mg/kg. Against the preceding molecule, the LD50 is about 1.6-fold higher.

On to `CCN`, for which the median lethal dose (LD50) turned out to be 400 mg/kg. This LD50 is about 11-fold lower than that of the molecule before. `CC(=O)C(C)C` came in with an LD50 of 148 mg/kg.

As to `OCCOc1ccccc1`, the LD50 amounted to 1370 mg/kg. In turn, `ClC(Cl)(Cl)c1ccccc1` displayed an LD50 of 1590 mg/kg. Under `CCCOCC(C)O` (centres undefined) stands 2490 mg/kg; under `CC(C)(C)c1ccc(CSc2cnn(C(C)(C)C)c(=O)c2Cl)cc1`, 570 mg/kg. Under `N#CCO` stands 8 mg/kg. `CCOc1ccc2c(c1)C(C)=CC(C)(C)N2`: the LD50 was 800 mg/kg. Against the preceding molecule, the LD50 is about 100-fold higher. Under `O=CC=O` stands 481 mg/kg.

For the molecule `O=P(OC(CCl)CCl)(OC(CCl)CCl)OC(CCl)CCl`, the LD50 was found to be 1850 mg/kg.

The record behind these values is the CATMoS acute toxicity set (Mansouri et al. 2021).
